From patent US8440638B2, “Compositions and methods for modulating calcium flux, glucose homeostasis and apoptosis” (Wisconsin Alumni Research Foundation, priority 2004, dated 2013)

System: nuclear acetyltransferase
Assay: Nuclear OAADPr acetyltransferase (OAADPr-metabolizing) activity in HEK-293 nuclear extract
Type: biochemical
Conditions: 100 μM puromycin, 60 min
Protocol: Shown is the development of whole cell currents over time in TRPM2-expressing HEK-293 cells. Bath solution was standard ringer's, and pipette solution was Cs-based and included 10 mM EGTA to buffer intracellular Ca^2+ to 10 nM. The patch pipette contained various concentrations of (FIG. 1a) ADPr, (FIG. 1b) OAADPr (FIG. 1c) OAADPr and puromycin as indicated in the figure. FIG. 1d.) Cytoplasmic OAADPr esterase activity is inhibited by puromycin. 200 μM O-[^3H]AADPr and 0-100 μM puromycin were added to cytoplasmic HEK-293 extract for 30 min. Percent hydrolysis of O-[^3H]AADPr to [^3H]acetate was measured as described hereinbelow. FIG. 1e.) Nuclear OAADPr acetyltransferase activity is not inhibited by puromycin. HEK-293 nuclear extract was incubated with 200 μM O-[^3H]AADPr in the presence or absence of 100 μM puromycin for 60 min. The reactions were quenched and resolved by HPLC. The radioactivity in collected fractions was determined by liquid scintillation counting. FIGS. 1f-g.) In vivo detection of OAADPr. […]
Cytoplasmic and nuclear extracts were prepared from HEK-293 cells as previously described (22). […] Aliquots of the supernatant containing [^3H]acetate were removed and analyzed by liquid scintillation counting. […] Radioactivity in each elution fraction was measured by liquid scintillation counting.

`COc1ccc(C[C@H](N)C(=O)N[C@H]2[C@@H](O)[C@H](n3cnc4c(N(C)C)ncnc43)O[C@@H]2CO)cc1` [puromycin] was tested, and the “effect on nuclear OAADPr-metabolizing activity” value was “no effect”.
